Experimental data as given in patent publication US10730878B2, “Fused quinoline compounds as PI3K/mTOR inhibitors” (ADVENCHEN PHARMACEUTICALS, LLC, priority 2015, dated 2020).

Columns and labels:
[1] = target: T1, mTor (Homo sapiens, UniProt P42345); test: mTor kinase inhibition, % activity at 0.03 μM (kinases panel screening); type: biochemical; details: 0.03 μM compound
T1 construct: purchased Millipore/Merck KGA of Europe (panel screening service)
Description: (§1) In vitro kinase inhibition activities included Pi3k and mTor activities can be tested with Millipore/Merck KGA of Europe in their kinases panel screening. Animal antitumor activity testing can be conducted by various cancer xenograft models for a compound of formula I. […]

[2] = test system: tumor cell lines; test: inhibition on tumor cell lines (drawing 11); type: cell-based; parameters: tumor cell line inhibition, first column under head drawing 11 / tumor cell line inhibition, third column under head drawing 11: unit not given here; details: head is a drawing, cell line and unit not readable; for tumor cell line inhibition, first column under head drawing 11: first of three columns; for tumor cell line inhibition, second column under head drawing 11: second of three columns; for tumor cell line inhibition, third column under head drawing 11: third of three columns
Procedure: The following compounds or a pharmaceutically acceptable salt thereof, but not limited, can also be prepared similarly according to the methods described in Scheme I-Scheme II. They are also tested for the inhibitions on mTor or pi3k kinases, or tumor cell lines.

[3] = test system: pi3K; test: pi3K kinase inhibition, % activity at 0.03 μM (kinases panel screening); type: biochemical; details: 0.03 μM compound
Description: as §1

Compound | mTor % activity @0.03 μM [1] [%] | tumor cell line inhibition, first column under head drawing 11 [2] | tumor cell line inhibition, second column under head drawing 11 [2] | tumor cell line inhibition, third column under head drawing 11 [2] | pi3K % activity @0.03 μM [3] [%]
Cc1nnc2n(-c3ccc(C(C)(C)C#N)cc3)c3c4cc(-c5cccnc5)ccc4ncc3n12 [3-pyridine; CH3; CH3, CH3; CN, 2-methyl-2-{4-[12-methyl-4-(pyridin-3-yl)-8,11,13,14,16-pentaazatetracyclo-[8.6.0.0^2,^7.0^11,^1^5]-hexadeca-1(10),2,4,6,8,12,14-heptaen-16-yl]phenyl}propanenitrile] | 80 | 0.7 | 2.6 | 22 | 
N-(5-{16-[4-(1-cyano-1-methylethyl)phenyl]-8,11,13,14,16-pentaazatetracyclo[8.6.0.0^2,^7.0^11,^1^5]-hexadeca-1(10), 2,4,6,8,12,14-heptaen-4-yl)}pyridin-2-yl)-2-(methylamino)acetamide | 0 |  |  |  | 39
CC(C)(C#N)c1ccc(-n2c3c4cc(-c5ccc(N)nc5)ccc4ncc3n3cnnc23)cc1 [5-pyridin-2-amine; H; CH3, CH3; CN, 2-{4-[4-(6-aminopyridin-3-yl)-8,11,13,14,16-pentaazatetracyclo[8.6.0.0^2,^7.0^11,^1^5]hexadeca-1(10),2,4,6,8,12,14-heptaen-16-yl]phenyl}-2-methylpropanenitrile] | 45 |  |  |  | −16
N-(5-{16-[4-(1-cyano-1-methylethyl)phenyl]-8,11,13,14,16-pentaazatetracyclo[8.6.0.0^2,^7.0^11,^1^5]-hexadeca-1(10), 2,4,6,8,12,14-heptaen-4-yl)}pyridin-2-yl)-2-(oxan-4-ylamino)acetamide | −1 |  |  |  | 68
CC(C)(C)c1ccc(-n2c3c4cc(-c5ccc(N)nc5)ccc4ncc3n3cnnc23)cc1 [5-pyridin-2-amine; H; CH3, CH3; CH3, 5-[16-(4-tert-butylphenyl)-8,11,13,14,16-pentaazatetracyclo[8.6.0.0^2,^7.0^11,^1^5]hexadeca-1(10),2,4,6,8,12,14-heptaen-4-yl]pyridin-2-amine] |  |  |  |  | −19
CCc1nnc2n(-c3ccc(C(C)(C)C)cc3)c3c4cc(-c5cccnc5)ccc4ncc3n12 [3-pyridine; CH2CH3; CH3, CH3; CH3, 16-(4-tert-butylphenyl)-12-ethyl-4-(pyridin-3-yl)-8,11,13,14,16-pentaazatetracyclo-[8.6.0.0^2,^7.0^11,^1^5]hexadec-1(10),2,4,6,8,12,14-heptaene] | 40 |  |  |  | 79
CCc1nnc2n(-c3ccc(C(C)(C)C)cc3)c3c4cc(-c5ccc(N)nc5)ccc4ncc3n12 [5-pyridin-2-amine; CH2CH3; CH3, CH3; CH3, 5-[16-(4-tert-butylphenyl)-12-ethyl-8,11,13,14,16-pentaazatetracyclo[8.6.0.0^2,^7.0^11,^1^5]hexadeca-1(10),2,4,6,8,12,14-heptaen-4-yl]pyridin-2-amine] | 20 |  |  |  | 40
5-[16-(4-tert-butylphenyl)-12-ethyl-8,11,13,14,16-pentaazatetracyclo[8.6.0.0^2,^7.0^11,^1^5]hexadeca-1(10),2,4,6,8,12,14-heptaen-4-yl]-N-(2-methoxyethyl)pyridin-2-amine | 72 |  |  |  | 93
CC(C)(C#N)c1ccc(-n2c3c4cc(-c5cnc(N)cc5C(F)(F)F)ccc4ncc3n3cnnc23)cc1 [2-(4-{4-[6-amino-4-(trifluoromethyl)pyridin-3-yl]-8,11,13,14,16-pentaazatetracyclo-[8.6.0.0^2,^7.0^11,^1^5]hexadec-1(10),2,4,6,8,12,14-heptaen-16-yl}phenyl)-2-methylpropanenitrile] | 87 |  |  |  | 65
CC(C)(C)c1ccc(-n2c3c4cc(-c5cnc(N)cc5C(F)(F)F)ccc4ncc3n3cnnc23)cc1 [5-[16-(4-tert-butylphenyl)-8,11,13,14,16-pentaazatetracyclo[8.6.0.0^2,^7.0^11,^1^5]hexadeca-1(10),2,4,6,8,12,14-heptaen-4-yl]-4-(trifluoromethyl)pyridin-2-amine] | 83 |  |  |  | 30
N-(5-{16-[4-(1-cyano-1-methylethyl)phenyl]-8,11,13,14,16-pentaazatetracyclo[8.6.0.0^2,^7.0^11,^1^5]-hexadeca-1(10), 2,4,6,8,12,14-heptaen-4-yl)}pyridin-2-yl)-2-(cyclohexylamino)acetamide | 3 |  |  |  | 79
N-(5-{16-[4-(1-cyano-1-methylethyl)phenyl]-8,11,13,14,16-pentaazatetracyclo[8.6.0.0^2,^7.0^11,^1^5]-hexadeca-1(10),2,4,6,8,12,14-heptaen-4-yl}pyridin-2-yl)-2-(cyclopentylamino)acetamide | −2 |  |  |  | 71
N-{5-[16-(4-tert-butylphenyl)-8,11,13,14,16-pentaazatetracyclo[8.6.0.0^2,^7.0^11,^1^5]hexadeca-1(10),2,4,6,8,12,14-heptaen-4-yl]pyridin-2-yl}-2-(pyrrolidin-1-yl)acetamide | 27 |  |  |  | 88
Cc1nnc2n(-c3ccc(C(C)(C)C)cc3)c3c4cc(-c5cnc(N)cc5C(F)(F)F)ccc4ncc3n12 [5-[16-(4-tert-butylphenyl)-12-methyl-8,11,13,14,16-pentaazatetracyclo[8.6.0.0^2,^7.0^11,^1^5]hexa-deca-1(10), 2,4,6,8,12,14-heptaen-4-yl]-4-(trifluoromethyl)pyridin-2-amine] | 94 |  |  |  | 50
Cc1nnc2n(-c3ccc(C(C)(C)C#N)cc3)c3c4cc(-c5ccncc5)ccc4ncc3n12 [4-pyridine; CH3; CH3, CH3; CN, 2-methyl-2-{4-[12-methyl-4-(pyridin-4-yl)-8,11,13,14,16-pentaazatetracyclo[8.6.0.0^2,^7.0^11,^1^5]-hexadeca-1(10), 2,4,6,8,12,14-heptaen-16-yl]phenyl}propanenitrile] |  | 0.08 | 0.37 | 0.23 | 
Cc1nnc2n(-c3ccc(C4(C#N)CC4)cc3)c3c4cc(-c5cccnc5)ccc4ncc3n12 [1-{4-[12-methyl-4-(pyridin-3-yl)-8,11,13,14,16-pentaazatetracyclo[8.6.0.0^2,^7.0^11,^1^5]-hexadeca-1(10),2,4,6,8,12,14-heptaen-16-yl]phenyl}cyclopropane-1-carbonitrile] |  | 1 | 0.3 | 0.9 | 
Cc1nnc2n(-c3ccc(C(C)(C)C#N)cc3)c3c4cc(-c5cnc6ccccc6c5)ccc4ncc3n12 [3-quinoline; CH3; CH3, CH3; CN, 2-methyl-2-{4-[12-methyl-4-(quinolin-3-yl)-8,11,13,14,16-pentaazatetracyclo-[8.6.0.0^2,^7.0^11,^1^5]hexadeca-1(10),2,4,6,8,12,14-heptaen-16-yl]phenyl}propanenitrile] |  | 13.5 | 8.5 | >23 | 
